In brackets after ≈: the same amount, converted by molar mass.

The record followed here is ChEMBL document CHEMBL5532708, “Tetrahydroxanthene-1,3(2H)-diones and Oxidized Hexadiene Derivatives from Uvaria leptopoda and Their Biological Activities” (J Nat Prod, 2024).

A short description of series [1]: Cytotoxicity against mouse RAW264.7 cells assessed as cell viability at 15 uM incubated for 24 hrs by MTT assay relative to control. In kind it is toxicity, cell-based. The settings on record: read-out: Activity.
Series [2] has as its system SNU1. Kind of series: Cytotoxicity against human SNU1 cells assessed as reduction in cell viability incubated for 24 hrs by MTT assay. The following applies: SNU1, 24 h. In kind it is functional, cell-based.
Series [3] has as its system RAW264.7. Kind of series: Antiinflammatory activity in mouse RAW264.7 cells assessed as inhibition of LPS-induced NO production at 15 uM incubated for 24 hrs by Griess reagent based analysis relative to control. The class given is functional. More on the design: scale not given: the % may be the effect or the level left.
The test system of series [4] is RAW264.7. Kind of series: Antiinflammatory activity in mouse RAW264.7 cells assessed as inhibition of LPS-induced NO production incubated for 24 hrs by Griess reagent based analysis. The following applies: RAW264.7, 24 h. The class given is functional, cell-based.
The test system of series [5] is KB. Kind of series: Cytotoxicity against human KB cells by SRB assay. In kind it is functional, cell-based.
Series [6] can be described thus: Cytotoxicity against human Lu1 cells assessed as inhibition of cell growth incubated for 72 hrs by SRB assay. In kind it is functional, cell-based. The following applies: Lu1, 72 h.
Series [7] relates to Plasmodium falciparum. Kind of series: Antiplasmodial activity against multidrug resistant Plasmodium falciparum K1 assessed as reduction in parasite growth by [3H]-hypoxanthine incorporation assay. The class given is functional, organism-based.

Consider `COc1ccc2c(c1)C[C@H]1[C@@H](OC(=O)c3ccccc3)[C@H](OC(C)=O)C(COC(=O)c3ccccc3)=C[C@H]1O2`, for which the viability at 24 h, 15 µM in series [1] is over 90%. Further, the 50% inhibitory concentration (IC50) in series [2] worked out at 130 µM. Besides, in series [3], the Activity stood at 15%.

As to `O=C(O)Cc1ccccc1Nc1c(Cl)cccc1Cl` [DICLOFENAC SODIUM], the IC50 in series [4] stood at 331 µM.

As to `COc1ccc2c(c1)C[C@]1(OC)C(=O)/C(=C(O)\C=C\c3ccccc3)C(=O)C[C@]1(OC)O2` (racemic), in series [1], the viability at 24 h, 15 µM was over 90%. In addition, the results for the IC50 in series [2] and in series [4] were 34 µM and 6.7 µM, respectively. The Activity in series [3] stood at 73%.

Turning to `CC(=O)OC[C@@]1(COC(=O)c2ccccc2)O[C@H]1/C=C\COC(=O)c1ccccc1`, in series [1], the viability at 24 h, 15 µM is over 90%. In addition, in series [2], the IC50 turned out to be 37 µM. Moreover, the Activity in series [3] is on record as 12%.

In turn, `COc1cc2cc(-c3ccc(O)cc3)ccc2cc1O` displayed a concentration for half-maximal inhibition (IC50) in series [5] of 5.05 µM.

Regarding `COc1cc(OC)c(C(=O)/C=C/c2ccccc2)c(O)c1OC`, the viability at 24 h, 15 µM in series [1] is over 90%. Moreover, in series [2], the IC50 is 11 µM. Moreover, in series [3], the Activity is given as -11%.

Consider `CC(=O)OC[C@@](O)(COC(=O)c1ccccc1)[C@@H](O)/C=C\COC(=O)c1ccccc1`, for which the viability at 24 h, 15 µM in series [1] was over 90%. In addition, in series [2], the IC50 came out at 82 µM. Also, the Activity in series [3] stood at 14%.

As for `CC(C)[C@@H](C)/C=C/[C@@H](C)[C@H]1CCC2=C3C=CC4=CC(=O)CC[C@]4(C)[C@H]3CC[C@@]21C`, the IC50 in series [6] turned out to be 10.2 µg/mL (≈ 26 µM).

As to `COc1ccc2c(c1)C[C@]1(OC)C(=O)/C(=C(/O)[C@H]3[C@H](c4ccccc4)[C@H](/C(O)=C4/C(=O)C[C@@]5(OC)Oc6ccc(OC)cc6C[C@@]5(OC)C4=O)[C@H]3c3ccccc3)C(=O)C[C@]1(OC)O2`, the viability at 24 h, 15 µM in series [1] was over 90%. Also, the half-inhibitory concentration (IC50) in series [2] came out at 18 µM. Moreover, in series [3], the Activity amounted to 6.5%.

Consider `O=C1c2cc(O)ccc2-c2c3c(cc4ccnc1c24)OCO3`, for which the IC50 in series [6] turned out to be 9.22 µg/mL (≈ 31.7 µM).

Turning to `COc1cc(OC)c([C@@H]2Oc3c(OC)c(OC)cc(OC)c3[C@@H](/C=C/c3ccccc3)[C@H]2C(=O)c2ccccc2)c(O)c1OC`, in series [7], the IC50 was determined as 3.02 µg/mL (≈ 4.93 µM).
